# Measured values as given in patent US11680056B2, “MK2 inhibitors and uses thereof” (Xinthera, Inc., priority 2021, dated 2023).
# Experiments:
# p38a/MK2 = p38a/MK2 (Homo sapiens (Human), UniProt P49137+Q16539); assay: p38a/MK2 biochemical assay: activation of MK2 by p38, FITC-HSP27 peptide phosphorylation (IMAP FP); settings: 10-point 1:3 dilution, top dose 1 μM; 60 pM active p38a, 1 nM inactive MK2, 10 μM ATP, 2 h incubation; read-out: p38a/MK2 (1 μM) Enzyme pIC50 (converted)
# p38a/PRAK = p38a/PRAK (Homo sapiens (Human), UniProt Q16539); assay: p38a/PRAK biochemical assay: activation of PRAK by p38, FITC-HSP27 peptide phosphorylation (IMAP FP); settings: 10-point 1:3 dilution, top dose 300 μM; 60 pM active p38a, 1 nM inactive PRAK, 10 μM ATP, 2 h incubation; read-out: p38a/PRAK Enzyme pIC50 (converted)
# Summary of the method: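 GST-tagged MK2 (F46–H400) and PRAK (M1–Q471), expressed in E. coli, activated by p38 and phosphorylate FITC-HSP27 peptide over 2 h with compound; readout by IMAP fluorescence polarisation (ex 485/em 528 nm). Ten-point 1:3 dilutions, top dose 1 μM for MK2 and 300 μM for PRAK. IC50 after vehicle normalisation; selectivity = IC50(PRAK)/IC50(MK2).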
# Chain of p38a/MK2 (P49137 46-400): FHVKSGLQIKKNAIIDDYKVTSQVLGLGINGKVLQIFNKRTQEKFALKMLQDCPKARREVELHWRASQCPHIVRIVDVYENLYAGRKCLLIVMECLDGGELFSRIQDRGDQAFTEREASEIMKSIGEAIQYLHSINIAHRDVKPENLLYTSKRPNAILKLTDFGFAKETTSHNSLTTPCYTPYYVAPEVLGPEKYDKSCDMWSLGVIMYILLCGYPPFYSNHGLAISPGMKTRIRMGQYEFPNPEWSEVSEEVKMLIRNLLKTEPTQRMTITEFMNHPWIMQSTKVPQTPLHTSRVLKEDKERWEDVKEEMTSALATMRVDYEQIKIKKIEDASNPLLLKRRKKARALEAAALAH
# Chain of p38a/MK2 (Q16539 whole entry): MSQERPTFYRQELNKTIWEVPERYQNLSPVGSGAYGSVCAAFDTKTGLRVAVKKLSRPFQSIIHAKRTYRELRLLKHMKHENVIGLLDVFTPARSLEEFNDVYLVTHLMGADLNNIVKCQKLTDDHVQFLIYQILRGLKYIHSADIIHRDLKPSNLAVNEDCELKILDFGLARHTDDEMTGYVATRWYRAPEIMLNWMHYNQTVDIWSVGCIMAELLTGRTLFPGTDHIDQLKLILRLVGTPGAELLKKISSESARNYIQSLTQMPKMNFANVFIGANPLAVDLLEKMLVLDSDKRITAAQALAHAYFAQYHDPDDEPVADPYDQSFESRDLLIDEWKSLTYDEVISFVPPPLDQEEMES
# Chain of p38a/PRAK (Q16539 whole entry): as above
SMILES,IC50 (p38a/MK2),IC50 (p38a/PRAK)
"Cc1cnc(-c2ccnc(C(C)(C)O)n2)c(F)c1-n1c(C)cc(OCc2ncc(F)cc2F)c(Cl)c1=O (single isomer, unassigned) [Example 53A, rel-3-chloro-4-[(3,5-difluoropyridin-2-yl)methoxy]-3′-fluoro-2′-[2-(2-hydroxypropan-2-yl)pyrimidin-4-yl]-5′,6-dimethyl-[1,4′-bipyridin]-2-one]",> 1000 nM,> 316000 nM
"Cc1cnc(-c2ccnc(C(C)(C)O)n2)c(F)c1-n1c(C)cc(OCc2ncc(F)cc2F)c(Cl)c1=O (single isomer, unassigned) [Example 53B, rel-3-chloro-4-[(3,5-difluoropyridin-2-yl)methoxy]-3′-fluoro-2′-[2-(2-hydroxypropan-2-yl)pyrimidin-4-yl]-5′,6-dimethyl-[1,4′-bipyridin]-2-one]",0.126 nM,794 nM
"Cc1cnc(-n2ccc(C(C)(C)O)n2)c(F)c1-n1c(C)cc(OCc2ncc(F)cc2F)c(Cl)c1=O (single isomer, unassigned) [Example 54A, rel-3-chloro-4-((3,5-difluoropyridin-2-yl)methoxy)-3′-fluoro-2′-(3-(2-hydroxypropan-2-yl)-1H-pyrazol-1-yl)-5′,6-dimethyl-2H-[1,4′-bipyridin]-2-one]",> 1000 nM,> 316000 nM
"Cc1cnc(-n2ccc(C(C)(C)O)n2)c(F)c1-n1c(C)cc(OCc2ncc(F)cc2F)c(Cl)c1=O (single isomer, unassigned) [Example 54B, rel-3-chloro-4-((3,5-difluoropyridin-2-yl)methoxy)-3′-fluoro-2′-(3-(2-hydroxypropan-2-yl)-1H-pyrazol-1-yl)-5′,6-dimethyl-2H-[1,4′-bipyridin]-2-one]",0.631 nM,1580 nM
"[2H]C([2H])(Oc1cc(C)n(-c2c(C)cnc(-c3ccnc(C(C)(C)O)n3)c2F)c(=O)c1Cl)c1ncc(F)cc1F (single isomer, unassigned) [Example 57A, rel-3-chloro-4-[(3,5-difluoropyridin-2-yl)(2H2)methoxy]-3′-fluoro-2′-[2-(2-hydroxypropan-2-yl)pyrimidin-4-yl]-5′,6-dimethyl-[1,4′-bipyridin]-2-one]",1.26 nM,794 nM
"[2H]C([2H])(Oc1cc(C)n(-c2c(C)cnc(-c3ccnc(C(C)(C)O)n3)c2F)c(=O)c1Cl)c1ncc(F)cc1F (single isomer, unassigned) [Example 57B, rel-3-chloro-4-[(3,5-difluoropyridin-2-yl)(2H2)methoxy]-3′-fluoro-2′-[2-(2-hydroxypropan-2-yl)pyrimidin-4-yl]-5′,6-dimethyl-[1,4′-bipyridin]-2-one]",> 10 nM,126000 nM
"[2H]C([2H])(Oc1cc(C)n(-c2c(C)cnc(-c3ccnc(C(C)(C)CO)n3)c2F)c(=O)c1Cl)c1ncc(F)cc1F (single isomer, unassigned) [Example 59A, rel-3-chloro-4-((3,5-difluoropyridin-2-yl)methoxy-d2)-3′-fluoro-2′-(2-(1-hydroxy-2-methylpropan-2-yl)pyrimidin-4-yl)-5′,6-dimethyl-2H-[1,4′-bipyridin]-2-one]",> 1000 nM,> 316000 nM
"[2H]C([2H])(Oc1cc(C)n(-c2c(C)cnc(-c3ccnc(C(C)(C)CO)n3)c2F)c(=O)c1Cl)c1ncc(F)cc1F (single isomer, unassigned) [Example 59B, rel-3-chloro-4-((3,5-difluoropyridin-2-yl)methoxy-d2)-3′-fluoro-2′-(2-(1-hydroxy-2-methylpropan-2-yl)pyrimidin-4-yl)-5′,6-dimethyl-2H-[1,4′-bipyridin]-2-one]",1 nM,316 nM
"[2H]C([2H])(Oc1cc(C)n(-c2c(C)cnc(-c3ccnc(CC4(O)CC4)n3)c2F)c(=O)c1Cl)c1ncc(F)cc1F (single isomer, unassigned) [Example 61A, rel-3-chloro-4-((3,5-difluoropyridin-2-yl)methoxy-d2)-3′-fluoro-2′-(2-((1-hydroxycyclopropyl)methyl)pyrimidin-4-yl)-5′,6-dimethyl-2H-[1,4′-bipyridin]-2-one]",> 100 nM,158000 nM
"[2H]C([2H])(Oc1cc(C)n(-c2c(C)cnc(-c3ccnc(CC4(O)CC4)n3)c2F)c(=O)c1Cl)c1ncc(F)cc1F (single isomer, unassigned) [Example 61B, rel-3-chloro-4-((3,5-difluoropyridin-2-yl)methoxy-d2)-3′-fluoro-2′-(2-((1-hydroxycyclopropyl)methyl)pyrimidin-4-yl)-5′,6-dimethyl-2H-[1,4′-bipyridin]-2-one]",3.16 nM,631 nM
"Cc1cnc(-c2cccc(C(C)(C)O)[n+]2[O-])c(F)c1-n1c(C)cc(OCc2ncc(F)cc2F)c(Cl)c1=O (single isomer, unassigned) [Example 62A, rel-3-chloro-4-((3,5-difluoropyridin-2-yl)methoxy)-3′-fluoro-6″-(2-hydroxypropan-2-yl)-5′,6-dimethyl-2-oxo-2H-[1,4′:2′,2″-terpyridine] 1″-oxide]",1.58 nM,794 nM
"Cc1cnc(-c2cccc(C(C)(C)O)[n+]2[O-])c(F)c1-n1c(C)cc(OCc2ncc(F)cc2F)c(Cl)c1=O (single isomer, unassigned) [Example 62B, rel-3-chloro-4-((3,5-difluoropyridin-2-yl)methoxy)-3′-fluoro-6″-(2-hydroxypropan-2-yl)-5′,6-dimethyl-2-oxo-2H-[1,4′:2′,2″-terpyridine] 1″-oxide]",> 100 nM,> 316000 nM
"Cc1cnc(-c2cccc(C(C)(C)O)n2)c(F)c1-n1c(C)cc(OCc2ncc(F)cc2F)c(Cl)c1=O (single isomer, unassigned) [Example 63A, rel-3-chloro-4-[(3,5-difluoropyridin-2-yl)methoxy]-1-[3-fluoro-6′-(2-hydroxypropan-2-yl)-5-methyl-[2,2′-bipyridin]-4-yl]-6-methylpyridin-2-one]",> 100 nM,> 316000 nM
"Cc1cnc(-c2cccc(C(C)(C)O)n2)c(F)c1-n1c(C)cc(OCc2ncc(F)cc2F)c(Cl)c1=O (single isomer, unassigned) [Example 63B, rel-3-chloro-4-[(3,5-difluoropyridin-2-yl)methoxy]-1-[3-fluoro-6′-(2-hydroxypropan-2-yl)-5-methyl-[2,2′-bipyridin]-4-yl]-6-methylpyridin-2-one]",0.316 nM,316 nM
"[2H]C([2H])(Oc1cc(C)n(-c2cc(-c3ccnc(C(C)(C)O)c3F)ncc2C)c(=O)c1Cl)c1ncc(F)cc1F (single isomer, unassigned) [Example 64A, rel-3-chloro-4-[(3,5-difluoropyridin-2-yl)(2H2)methoxy]-1-[3′-fluoro-2′-(2-hydroxypropan-2-yl)-5-methyl-[2,4′-bipyridin]-4-yl]-6-methylpyridin-2-one]",2 nM,2000 nM
"[2H]C([2H])(Oc1cc(C)n(-c2cc(-c3ccnc(C(C)(C)O)c3F)ncc2C)c(=O)c1Cl)c1ncc(F)cc1F (single isomer, unassigned) [Example 64B, rel-3-chloro-4-[(3,5-difluoropyridin-2-yl)(2H2)methoxy]-1-[3′-fluoro-2′-(2-hydroxypropan-2-yl)-5-methyl-[2,4′-bipyridin]-4-yl]-6-methylpyridin-2-one]",> 100 nM,> 316000 nM
